Experiment [1] has as its target Replicase polyprotein 1ab (Severe acute respiratory syndrome coronavirus 2) (UniProt P0DTD1). Kind of experiment: Inhibition of recombinant SARS-CoV-2 3CLpro expressed in Escherichia coli BL21 at […] using LGSAVLQ-rhodamine 110-dp as fluorogenic substrate preincubated for 15 mins followed by substrate addition by spectrophotometry analysis relative to control.
For experiment [2] the target is unchanged. Kind of experiment: Inhibition of recombinant SARS-CoV-2 3CLpro expressed in Escherichia coli BL21 at 20 uM using LGSAVLQ-rhodamine 110-dp as fluorogenic substrate preincubated for 15 mins followed by substrate addition by spectrophotometry analysis relative to control.
For experiment [3], the target named is Replicase polyprotein 1ab (Severe acute respiratory syndrome coronavirus 2, UniProt P0DTD1). The experiment in a line: Inhibition of recombinant SARS-CoV-2 3CLpro expressed in Escherichia coli BL21 using LGSAVLQ-rhodamine 110-dp as fluorogenic substrate preincubated for 15 mins followed by substrate addition by spectrophotometry analysis.

The values that follow come from ChEMBL document CHEMBL5120868, “Tuaimenal A, a Meroterpene from the Irish Deep-Sea Soft Coral Duva florida, Displays Inhibition of the SARS-CoV-2 3CLpro Enzyme” (J Nat Prod, 2022).

The structures appear in SMILES notation.

By inhibition is commonly meant the percentage by which the read-out fell short of the control. For `NCCc1ccc(S(=O)(=O)F)cc1`, the inhibition in experiment [1] was 100%. A word on the IC50: it is the point on the concentration scale where inhibition reaches its midpoint. For `CC(C)=CCC/C(C)=C/CC[C@]1(C)C=Cc2c(C=O)c(O)c(C)c(O)c2O1`, the inhibition in experiment [2] was 40%. Besides, in experiment [3], the IC50 was found to be 21 µM.
